Structures can show the parent of a compound that is named as a salt.
What was measured:
physchem [1] = assay type: physicochemical
From the text: The appropriate amine is heated with an equimolar amount of either tizoxanide or RM4848 in methanol until a clear solution is obtained. Any small amounts of undissolved solid are removed by filtration. On cooling, the desired salt may crystallize immediately; addition of an equal volume of a solvent, such as diethyl ether (for the tizoxanide salts) or concentration to a small volume, then addition of excess ether (for salts of RM4848), may be used to obtain solid products. In general the salts of RM4848 are more soluble under the above conditions. All the salts are more soluble in water than the parent thiazolides.
The resulting slurry was filtered without issues; the filtration went easy on a glass sintered funnel. The cake was washed with water (3×2 Veq) and methanol (3×2 Veq). Combining the neutralization step and aqueous washings provide that no HCl remains in the cake. Avoiding residual HCl in the product may be important because it could react with ethanolamine during step 2. Washing the cake with methanol allows for the removal of water. […] This way no Tizoxanide is lost during the washing of the cake; nevertheless, the remaining NTZA is not removed either.
RM5071 is not soluble in ethyl acetate, but it tends to form a sticky material. This was also observed during a test reaction in pure ethyl acetate. In addition, it was observed that RM5071 is almost soluble in methanol at a concentration of 5 mg/mL.

[2] = Bioavailability pharmacokinetic study, single oral gavage dose in rats; assay type: in vivo, Sprague-Dawley rats; conditions: for maximum concentrations (Cmax) of T (medians): both, Sprague-Dawley
Protocol: A study was conducted to evaluate the bioavailability of tizoxanide (T) and tizoxanide glucuronide (TG) in plasma following oral administration of a single dose of 90 mg/kg RM-5071, RM-5072 and nitazoxanide by oral gavage to four male and four female Sprague-Dawley rats. Plasma samples were collected at 0.083, 0.167, 0.25, 0.5 1, 2, 6, 12 and 24-hours post-dose. Concentrations of T and TG were determined using mass spectrometry. […] These compounds are rapidly absorbed achieving Cmax within 5 minutes after an oral dose.
Animals and treatment. Three groups of four male and four female Sprague-Dawley rats were administered RM-5071, RM-5072 or NTZ as a single oral gavage dose as detailed in the table below:
Nine serial blood samples were obtained from each animal at 0.083, 0.167, 0.25, 0.5 1, 2, 6, 12 and 24-hours post-dose. Derived plasma samples were stored in sodium heparinized tubes at −70° C. or lower until they were shipped on dry ice via overnight courier for analysis of T and TG concentrations by mass spectrometry.
Because some animals glucurono-conjugate T faster than others, the extent, rate and variability of absorption of these three compounds using the sum of free and glucurono-conjugated T concentrations at each timepoint were evaluated. To arrive at the concentrations of glucurono-conjugated T, TG concentrations were multiplied by 61% (molecular weight of T=270 divided by molecular weight of TG=441).

[3] = in vivo; cited from earlier work
physchem [4] = assay type: physicochemical; remark: listed apart in the source
Protocol: The acid titration was performed by adding 20 mL of a 1 mg/mL RM-5071 solution poured onto a beaker (titrate), the pH of the solution was measured while using a solution of 0.01N HCl as the titrant. The alkaline titration was performed by adding 20 mL of a 1 mg/mL RM-5071 solution were poured onto a beaker, the pH of the solution was measured while adding a solution 0.02 N NaOH as the titrant. The solutions had agitation with a magnetic stirrer during titration and it was stopped during pH measurements.
The inflection point was calculated using the second derivative of the experimental curve, the volume for the equivalence point is 5.83 mL of 0.01 N HCl, at a pH =5.99. […] The pKa of a phenolic proton is 9.9 as per Vollhardt, K. P. C.; Schore, N. E., Organic Chemistry; Palgrave Version: Structure and Function. Macmillan International Higher Education: 2014.

[5] = Thermogravimetric analysis (TGA); assay type: physicochemical
From the text: Thermogravimetric analysis (TGA) is an analytical technique used to determine the thermal stability of a material and its fraction of volatile components by monitoring the weight change that occurs as a substance is heated. As many weight loss curves look similar, the curves may require transformation before results may be interpreted. A derivative weight loss curve can be used to tell the point at which weight loss is most apparent. The analysis is normally carried out in air or in an inert atmosphere such as nitrogen.
For the TGA analysis, amounts between 2.0 to 2.6 mg of both RM-5071 and desacetyl-NTZA samples were placed individually in platinum pans. The temperature method was: step 1: equilibrate at 25° C., step 2: heat from 25° C. to 700° C. at 10.00° C./min, step 3: hold for 5 min at 700° C. The analyses were carried out under nitrogen.

[6] = XRD temperature test (oven heating, then XRD); assay type: physicochemical
Protocol: A temperature test was performed in order to determine if any physical and crystallinity changes occurred to the sample RM-5071 upon heating.In order to assess if any change occurred two set of experiments were performed as follows: Experiment A- Two petri dishes were identified as “Fast” and “Slow”. To each petri dish, approximately 2 spatulas of sample RM-5071 were added. Then, the oven was turned on and set to a temperature of-160-165° C. After reaching the temperature, the petri dishes were placed in the oven for 15 minutes. Once the time was completed, the oven was turned off and the “Fast” sample was removed and left to reach room temperature (RT) in the hood. The “Slow” sample was left in the oven to reach RT in a slower manner. The “Slow” sample was removed from the oven, once it reached RT. The samples were analyzed by XRD. Experiment B- The procedure described above was followed at a temperature range of ˜110-120° C. After reaching the temperature, the petri dishes were placed in the oven during 10 minutes. The removal of samples from the oven was followed as previosly described. Afterwards, the samples were analyzed by XRD.

[7] = Differential scanning calorimetry (DSC); assay type: physicochemical; conditions: 10 °C/min under nitrogen; irreversible for RM-5071
Protocol: Differential scanning calorimetry (DSC) is a thermo-analytical technique in which the difference in the amount of heat required to increase the temperature of a sample versus a reference are measured as a function of temperature. The reference sample should have a well-defined heat capacity over the range of temperatures to be scanned. One application of DSC is studying phase transitions, such as melting, glass transitions, and/or exothermic decompositions. Such measurements provide qualitative and quantitative information about physical and chemical changes of a molecule.
The calorimetric analysis was performed by the MCC. For the DSC analysis, amounts between 2.34 to 2.46 mg of the samples RM-5071 and desacetyl-NTZA were placed individually in aluminum hermetic pans and covered with an aluminum lid. The temperature method was: step 1: hold for 10 min at 25° C., and step 2: heat from 25° C. to 400 at 10.00 ° C./min. An additional DSC experiment was performed to determine further crystallinity behavior by performing a heat-cool-heat cycling experiment to RM-5071. Approximately 1.69 mg of the RM-5071sample was placed in an aluminum hermetic pan and covered with an aluminum lid. […]

physchem [8] = assay type: physicochemical; conditions: for solubility: thermodynamic from solid
Protocol: The apparent solubility of RM-5071 was tested using several solvents, specifically: DMF, DMSO, acetonitrile (ACN), water, ACN/water mixture, methanol, isopropanol, and ethanol. United States Pharmacopeia (USP) classify the solubility regardless of the solvent used, just following defined criteria summarized in Table 10. The solute was initially dissolved in each of the solvents or solvent system at a lmg/mL concentration. If solute remained undissolved, a fresh solution of lower concentration was subsequently prepared until the solid was observed completely dissolved. This concentration limit was estimated as the apparent solubility.
The solutions of RM-5071 were prepared, dissolving 10 mg in increasing solvent volumes ranging from 10 mL, 100 mL, to 1000 mL in each of the solvents. According to the visual inspection and observations the apparent solubility of RM-5071 was classified according the 10, as defined by the USP.
The solubility studies of RM-5071 were performed in several solvents as specified on Table 11 at room temperature. For the purpose of this chemical characterization report, the terms specified on Table 10 were used to describe the solubility of RM 5071 in different solvents on Table 12

[9] = single 90 mg/kg oral gavage, 4 male and 4 female rats per group
[10] = single 90 mg/kg oral gavage, rats

With `O=C(Nc1ncc([N+](=O)[O-])s1)c1ccccc1O` [Desacetyl-NTZA, 2-Hydroxybenzoyl-N-[(5-nitro)thiazol-2-yl]amide] the solubility in methanol (physchem [1]) was “fairly insoluble” and the solubility in water (physchem [1]) was “fairly insoluble”.

In the case of `CC(=O)Oc1ccccc1C(=O)Nc1ncc([N+](=O)[O-])s1` [NTZ, 2-(acetolyloxy)-N-(5-nitro-2-thiazolyl) benzamide, reference compound], the solubility in methanol (physchem [1]) is reported as “fairly insoluble”, the solubility in water (physchem [1]) is reported as “fairly insoluble” and the “maximum concentrations (Cmax) of T (medians)” value (“maximum concentrations (Cmax)” for short) ([2]; rat, in vivo, po, 90 mg/kg) is reported as 1700 ng/mL. For the same compound, the adverse clinical signs ([2]; rat, in vivo, po, 90 mg/kg) was “No adverse clinical signs were observed”, the “time at which Cmax of T was achieved” value ([2]; rat, in vivo, po, 90 mg/kg) was 2 h and the plasma half-life [3] was 1.3 h.

With `O=C(Nc1ncc([N+](=O)[O-])s1)c1ccccc1O` [RM-5071, 2-Hydroxybenzoyl-N-[(5-Nitro)Thiazol-2-yl]Amide, Ethanolamine Salt] the pKa (physchem [4]) was 8.8, the pH of solution (physchem [4]; 1 mg/mL RM-5071 solution, initial) was 9.44 and the “pH at which full dissolution of the solid is achieved” value (physchem [4]; 1 mg/mL, titration with NaOH) was 10.63. The “First step Temperature (° C.)” value ([5]; 10 °C/min under nitrogen) was 85-160 °C, the “Second step Temperature(° C.)” value ([5]; 10 °C/min under nitrogen) was 160-254 °C and the “Second step Weight loss (%)” value ([5]; 10 °C/min under nitrogen) was 30.93%. For the same compound, the “Third step Temperature(° C.)” value ([5]; 10 °C/min under nitrogen) was 254-700 °C, the “Third step Weight loss (%)” value ([5]; 10 °C/min under nitrogen) was 26.62% and the total weight loss ([5]; 25 to 700 °C under nitrogen) was 77%. For the same compound, the “physical and crystallinity changes upon heating” value ([6]; Experiment A: 160-165° C., 15 minutes) was “changed from bright yellow to a black powder with beige portions”, the “physical and crystallinity changes upon heating” value ([6]; Experiment B: 110-120° C., 10 minutes) was “does not change significantly” and the “solubility in ethyl acetate” value (physchem [1]) was “not soluble”. The solubility (physchem [1]; organic solvent or mixture) was about 5000 µg/mL, the “maximum concentrations (Cmax)” value ([2]; rat, in vivo, po, 90 mg/kg) was 4700 ng/mL and the “bioavailability in terms of the maximum concentration compared to NTZA” value ([2]; rat, in vivo) was “more bioavailable”. The “mean AUC0-12h relative to NTZ” value ([2]; rat, in vivo) was “roughly the same”, the “mean AUC0-12h relative to RM-5072” value ([2]; rat, in vivo) was “almost double” and the adverse clinical signs [2, 9] was “No adverse clinical signs were observed”. For the same compound, the “plasma concentrations of T and TG (free and glucurono-conjugated T) compared to RM-5072 or NTZ” value [2, 10] was “higher”, the “speed of availability of T in plasma compared to NTZ” value [2, 10] was “dramatically improve” and the “variability of absorption compared to RM-5072 or NTZ” value [2, 10] was “less variability”. For the same compound, the “DSC peak transition temperature (exothermic; solid stable up to)” value [7] was 163 °C, the Apparent solubility (physchem [8]) was “very soluble” and the solubility (physchem [8]; aqueous with cosolvent or surfactant or cyclodextrin, Apparent Solubility of RM-5071) was over 1000 µg/mL. For the same compound, the solubility (physchem [8]; aqueous with cosolvent or surfactant or cyclodextrin, Apparent Solubility of RM-5071 (concentration limit)) was over 1000 µg/mL, the solubility (physchem [8]; organic solvent or mixture, Apparent Solubility of RM-5071 (concentration limit)) was 33 µg/mL and the solubility (physchem [8]; water, Apparent Solubility of RM-5071 (concentration limit)) was under 5 µg/mL.

In the case of `O=C(Nc1ncc([N+](=O)[O-])s1)c1ccccc1O` [RM-5072, 2-Hydroxybenzoyl-N-[(5-Nitro)Thiazol-2-yl]Amide, Morpholine Salt], the “maximum concentrations (Cmax)” value ([2]; rat, in vivo, po, 90 mg/kg) is reported as 3100 ng/mL, the adverse clinical signs [2, 9] is reported as “No adverse clinical signs were observed” and the “speed of availability of T in plasma compared to NTZ” value [2, 10] is reported as “dramatically improve”.

Reference: US20230303504A1, “CRYSTALLINE SALTS OF TIZOXANIDE AND 2-HYDROXY-N-(5-CHLORO-1,3-THIAZOL-2-YL)BENZAMIDE (RM-4848) WITH ETHANOLAMINE, MORPHOLINE, PROPANOLAMINE, PIPERAZINE AND N-METHYLPIPERAZINE” (priority 2020, published 2023)
